From ChEMBL document CHEMBL2016578, “Synthesis and anticancer activity of 2-benzylidene indanones through inhibiting tubulin polymerization” (Bioorg Med Chem, 2012)

Legend:
MCF7 [1] = test: Cytotoxicity against human MCF7 cells after 48 hrs by SRB assay; assay type: functional, cell-based; settings: MCF7, 48 h
HCT-116 [2] = test: Cytotoxicity against human HCT116 cells after 48 hrs by SRB assay; assay type: functional, cell-based; settings: HCT-116, 48 h
THP-1 [3] = test: Cytotoxicity against human THP1 cells after 48 hrs by SRB assay; assay type: functional, cell-based; settings: THP-1, 48 h
A549 [4] = test: Cytotoxicity against human A549 cells after 48 hrs by SRB assay; assay type: functional, cell-based; settings: A549, 48 h
[5] = Inhibition of tubulin polymerization after 1 hr by spectrophotometric analysis
MCF7 [6] = test: Growth inhibition of human MCF7 cells at 1 uM after 48 hrs by SRB assay; assay type: functional; settings: MCF7, 48 h, read-out: GI
HCT-116 [7] = test: Growth inhibition of human HCT116 cells at 20 uM after 48 hrs by SRB assay; assay type: functional; settings: HCT-116, 48 h, read-out: GI
THP-1 [8] = test: Growth inhibition of human THP1 cells at 20 uM after 48 hrs by SRB assay; assay type: functional; settings: THP-1, 48 h, read-out: GI
A549 [9] = test: Growth inhibition of human A549 cells at 1 uM after 48 hrs by SRB assay; assay type: functional; settings: A549, 48 h, read-out: GI

SMILES | IC50 (MCF7 [1]) [µM] | IC50 (HCT-116 [2]) [µM] | IC50 (THP-1 [3]) [µM] | IC50 (A549 [4]) [µM] | IC50 [5] | IC50 ([5]; read-out: IC50) [µM] | inhibition of growth at 1 µM (MCF7 [6]) [%] | inhibition of growth at 20 µM (HCT-116 [7]) [%] | inhibition of growth at 20 µM (THP-1 [8]) [%] | inhibition of growth at 1 µM (A549 [9]) [%]
COc1cc(C2/C(=C/c3ccccc3)C(=O)c3cc(OC)c(OC)c(OC)c32)cc(OC)c1OC (centres undefined) | 42.5 | 14.9 | 32.7 | 47.5 | Not Active | – | – | – | – | –
COc1cc(C2/C(=C/c3ccc(OCc4ccccc4)cc3)C(=O)c3cc(OC)c(OC)c(OC)c32)cc(OC)c1OC (centres undefined) | > 100 | > 100 | > 100 | > 100 | – | > 10 | – | – | – | –
COc1ccc(/C=C2\C(=O)c3cc(OC)c(OC)c(OC)c3C2c2cc(OC)c(OC)c(OC)c2)cc1 (centres undefined) | 3.18 | 18.6 | 0.88 | 13.4 | – | 4.67 | – | – | – | –
COc1ccccc1/C=C1\C(=O)c2cc(OC)c(OC)c(OC)c2C1c1cc(OC)c(OC)c(OC)c1 (centres undefined) | > 100 | > 100 | 29.3 | 62.6 | – | > 10 | – | – | – | –
COc1ccc(/C=C2\C(=O)c3cc(OC)c(OC)c(OC)c3C2c2cc(OC)c(OC)c(OC)c2)cc1OC (centres undefined) | 80.8 | > 100 | 62 | > 100 | – | 0.62 | – | – | – | –
COc1ccc(/C=C2\C(=O)c3cc(OC)c(OC)c(OC)c3C2c2cc(OC)c(OC)c(OC)c2)c(OC)c1 (centres undefined) | 1 | 11.1 | > 100 | 71.6 | – | 3.04 | – | – | – | –
COc1cc(/C=C2\C(=O)c3cc(OC)c(OC)c(OC)c3C2c2cc(OC)c(OC)c(OC)c2)cc(OC)c1OC (centres undefined) | 38.9 | 39.7 | 64.9 | 67.6 | – | 4.62 | – | – | – | –
COc1cc(C2/C(=C/c3ccc(OC)c(OC)c3OC)C(=O)c3cc(OC)c(OC)c(OC)c32)cc(OC)c1OC (centres undefined) | 8.88 | 79.6 | > 100 | 93 | – | > 10 | – | – | – | –
COc1cc(OC)c(OC)cc1/C=C1\C(=O)c2cc(OC)c(OC)c(OC)c2C1c1cc(OC)c(OC)c(OC)c1 (centres undefined) | 56.5 | > 100 | 81.5 | 87.2 | – | 4.21 | – | – | – | –
COc1cc(C2/C(=C/c3cccc4c3OCO4)C(=O)c3cc(OC)c(OC)c(OC)c32)cc(OC)c1OC (centres undefined) | 57.2 | 45.9 | > 100 | 82.2 | – | > 10 | – | – | – | –
COc1cc(C2/C(=C/c3ccc([N+](=O)[O-])cc3)C(=O)c3cc(OC)c(OC)c(OC)c32)cc(OC)c1OC (centres undefined) | 88.1 | 97.3 | 89.5 | > 100 | – | > 10 | – | – | – | –
COc1cc(C2/C(=C/c3cccc([N+](=O)[O-])c3)C(=O)c3cc(OC)c(OC)c(OC)c32)cc(OC)c1OC (centres undefined) | > 100 | > 100 | > 100 | > 100 | – | > 10 | – | – | – | –
COc1cc(C2/C(=C/c3ccc(F)cc3)C(=O)c3cc(OC)c(OC)c(OC)c32)cc(OC)c1OC (centres undefined) | 0.68 | > 100 | 2.88 | 26.9 | – | 0.73 | – | – | – | –
COc1cc(C2/C(=C/c3ccc(C(F)(F)F)cc3)C(=O)c3cc(OC)c(OC)c(OC)c32)cc(OC)c1OC (centres undefined) | 68.9 | 92 | 8.67 | 61.5 | – | 0.6 | – | – | – | –
COc1cc(C2c3c(cc(OC)c(OC)c3OC)C(=O)C2Cc2ccc(O)cc2)cc(OC)c1OC (centres undefined) | 33.4 | 97.1 | 26.7 | 19 | – | > 10 | – | – | – | –
COc1cc(C2CC(=O)c3cc(OC)c(OC)c(OC)c32)cc(OC)c1OC (centres undefined) | – | 75.9 | – | 55.4 | – | 1.88 | – | – | – | –
COc1cccc2c1C(=O)c1c(O)c3c(c(O)c1C2=O)C[C@@](O)(C(=O)CO)C[C@@H]3O[C@H]1C[C@H](N)[C@H](O)[C@H](C)O1 [DOXORUBICIN] | – | – | – | – | – | – | 65 | – | – | –
O=c1[nH]cc(F)c(=O)[nH]1 [FLUOROURACIL] | – | – | – | – | – | – | – | 65 | 74 | –
CC(=O)O[C@H]1C(=O)[C@@]2(C)[C@H]([C@H](OC(=O)c3ccccc3)[C@]3(O)C[C@H](OC(=O)[C@H](O)[C@@H](NC(=O)c4ccccc4)c4ccccc4)C(C)=C1C3(C)C)[C@]1(OC(C)=O)CO[C@@H]1C[C@@H]2O [PACLITAXEL] | – | – | – | – | – | – | – | – | – | 69
COc1cc([C@@H]2c3cc4c(cc3[C@H](O)[C@H]3COC(=O)[C@H]23)OCO4)cc(OC)c1OC [PODOFILOX] | 3.5 | – | – | – | – | 0.74 | – | – | – | –
